pIC50: −log10 of the molar value.

From patent US20260327243A1, “SPIRO-HETEROCYCLIC INHIBITORS OF KRAS G12C MUTANT PROTEINS AND USES THEREOF” (AMGEN INC., priority 2023, published 2026) come the findings set out here.

Sequence of KRAS^G12C (P01116 1-169 isoform P01116-2 G12C/C118A): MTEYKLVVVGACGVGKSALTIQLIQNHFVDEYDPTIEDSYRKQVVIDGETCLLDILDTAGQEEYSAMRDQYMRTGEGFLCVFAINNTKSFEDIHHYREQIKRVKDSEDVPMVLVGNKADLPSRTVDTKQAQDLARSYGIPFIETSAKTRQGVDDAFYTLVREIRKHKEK

This test concerns the target KRAS^G12C (Homo sapiens, UniProt P01116, C118A/G12C). The test is described as follows: Coupled Nucleotide Exchange Assay. In kind it is biochemical. Particulars: GDP-bound KRAS (aa 1-169) G12C/C118A; 2 h compound pre-incubation; SOS-mediated exchange, 30 min; cRAF binding (AlphaLISA). The protocol: The KRAS^G12C coupled nucleotide exchange assay allows for the screening and profiling of KRAS^G12C antagonists/inhibitors by monitoring the binding of an effector protein (e.g., a Ras binding domain of Raf1, RBD-cRaf) to KRAS^G12C. Purified GDP-bound KRAS protein (aa 1-169), containing both G12C and C118A amino acid substitutions and an N-terminal His-tag, was pre-incubated in assay buffer (25 mM HEPES pH 7.4, 10 mM MgCl2, 0.01% Triton X-100, either with or without 0.1% BSA) with serially diluted compound for 2 h. For all subsequent steps, BSA was omitted and DTT was added to the reaction buffer at a final concentration of 1 mM. Following compound pre-incubation, purified SOS protein (aa 564-1049) and GTP (Roche 10106399001) were added to the assay wells and incubated for an additional 30 min. To determine the extent of inhibition of SOS-mediated nucleotide exchange, purified GST-tagged cRAF (aa 1-149), nickel chelate AlphaLISA acceptor beads (PerkinElmer AL108R), and AlphaScreen glutathione donor beads (PerkinElmer 6765302) were added to the assay wells and incubated for 5-30 min. The assay plates were then read on a plate reader measuring luminescence signal. Signal intensity of compound-containing wells were normalized to DMSO control, and data were analyzed using a 4-parameter logistic model to calculate IC50 values.
In general terms: Bead proximity is the source of the signal in Alpha formats.
On to `C=CC(=O)N1CCN([C@@H]2CN(c3cc(N4CCC5(C=CCO5)CC4)nc(C(F)(F)F)c3C#N)[C@@H]2C)CC1` [Compound 3-010, 4-((2R,3R)-3-(4-acryloylpiperazin-1-yl)-2-methylazetidin-1-yl)-6-(1-oxa-8-azaspiro[4.5]dec-3-en-8-yl)-2-(trifluoromethyl)nicotinonitrile], for which the negative-log IC50 (pIC50) (in general, −log10 of the IC50, conventionally taken in molar units) was 6.18.

In the case of `C=CC(=O)N1CCN(C2CN(c3cc(N4CCC5(CC4)CC(C)(C)CO5)nc(C(F)(F)F)c3C#N)C2)CC1` [Compound 3-045, 4-(3-(4-acryloylpiperazin-1-yl)azetidin-1-yl)-6-(3,3-dimethyl-1-oxa-8-azaspiro[4.5]decan-8-yl)-2-(trifluoromethyl)nicotinonitrile], the negative-log IC50 (pIC50) is 5.20.

`C=CC(=O)N1CCN([C@@H]2CN(c3cc(N4CCC5(C=CCC5)CC4)nc(C(F)(F)F)n3)[C@@H]2C)CC1` [Compound 3-073, 1-(4-((2R,3R)-1-(6-(8-Azaspiro[4.5]dec-1-en-8-yl)-2-(trifluoromethyl)pyrimidin-4-yl)-2-methylazetidin-3-yl)piperazin-1-yl) prop-2-en-1-one]: the pIC50 was 5.37.

On to `C=CC(=O)N1CCN(C2CN(c3cc(N4CCC5(CC4)CC5(F)F)nc(C(F)(F)F)c3C#N)C2)CC1` [Compound 3-036, 4-(3-(4-acryloylpiperazin-1-yl)azetidin-1-yl)-6-(1,1-difluoro-6-azaspiro[2.5]octan-6-yl)-2-(trifluoromethyl)nicotinonitrile], for which the negative-log IC50 (pIC50) was 5.17.

Take `C=CC(=O)N1CCN(C2CN(c3cc(N4CCC5(CC4)OC(=O)NC54CCC4)nc(C(F)(F)F)c3C#N)C2)CC1` [Compound 3-034, 4-(3-(4-acryloylpiperazin-1-yl)azetidin-1-yl)-6-(12-oxo-11-oxa-8,13-diazadispiro[3.0.55.34]tridecan-8-yl)-2-(trifluoromethyl)nicotinonitrile]: the pIC50 was 5.61.

The compound `C=CC(=O)N1CCN(C2CN(c3cc(N4CCC5(CC4)CC(F)(F)CO5)nc(C(F)(F)F)c3C#N)C2)CC1` [Compound 3-044, 4-(3-(4-acryloylpiperazin-1-yl)azetidin-1-yl)-6-(3,3-difluoro-1-oxa-8-azaspiro[4.5]decan-8-yl)-2-(trifluoromethyl)nicotinonitrile] had a pIC50 of 5.48.

For the compound `C=CC(=O)N1CCN(C2CN(c3cc(N4CCC5(CCCO5)[C@@H](CO)C4)nc(C(F)(F)F)c3C#N)C2)CC1` (stereo partly drawn) [Compound 3-062-2, 4-(3-(4-acryloylpiperazin-1-yl)azetidin-1-yl)-6-((6R)-6-(hydroxymethyl)-1-oxa-8-azaspiro[4.5]decan-8-yl)-2-(trifluoromethyl)nicotinonitrile], the negative logarithm of the IC50 (pIC50) is 5.21.

`C=CC(=O)N1CCN(C2CN(c3cc(N4CCC5(C=CCO5)CC4)nc(C(F)F)c3C)C2)CC1` [Compound 3-070, 1-(4-(1-(2-(difluoromethyl)-3-methyl-6-(1-oxa-8-azaspiro[4.5]dec-3-en-8-yl)pyridin-4-yl)azetidin-3-yl)piperazin-1-yl)prop-2-en-1-one]: the negative logarithm of the IC50 (pIC50) was 5.85.

With `C=CC(=O)N1CCN(C2CN(c3cc(N4CCC5(CC4)OCCc4ncsc45)nc(C(F)F)c3C)C2)CC1` [Compound 3-069, 1-(4-(1-(2-(Difluoromethyl)-6-(6′,7′-dihydrospiro[piperidine-4,4′-pyrano[4,3-d]thiazol]-1-yl)-3-methylpyridin-4-yl)azetidin-3-yl)piperazin-1-yl) prop-2-en-1-one], the pIC50 was 6.08.

Consider `C=CC(=O)N1CCN(C2CN(c3cc(N4CCC5(C=C[C@H](C)O5)CC4)nc(C(F)(F)F)c3C#N)C2)CC1` [Compound 3-068-2, (S)-4-(3-(4-acryloylpiperazin-1-yl)azetidin-1-yl)-6-(2-methyl-1-oxa-8-azaspiro[4.5]dec-3-en-8-yl)-2-(trifluoromethyl)nicotinonitrile], for which the negative logarithm of the IC50 (pIC50) was 5.81.

Take `C=CC(=O)N1CCN([C@@H]2CN(c3cc(N4CCC5(CC4)OCCC=C5C)nc(C(F)F)n3)[C@@H]2C)CC1` [Compound 3-009, 1-(4-((2R,3R)-1-(2-(difluorometh-yl)-6-(5-methyl-1-oxa-9-azaspiro [5.5]undec-4-en-9-yl)-pyrimidin-4-yl)-2-methylazetidin-3-yl)piper-azin-1-yl)prop-2-en-1-one]: the pIC50 is 6.05.

In turn, `C=CC(=O)N1CCN(C2CN(c3cc(N4CCC5(CC4)CC(F)(F)C5)nc(C(F)(F)F)c3C#N)C2)CC1` [Compound 3-037, 4-(3-(4-acryloylpiperazin-1-yl)azetidin-1-yl)-6-(2,2-difluoro-7-azaspiro[3.5]nonan-7-yl)-2-(trifluoromethyl)nicotinonitrile] had a pIC50 of 5.48.

In turn, `C=CC(=O)N1CCN(C2CN(c3cc(N4CCC5(CC4)OC(C)C=C5Cl)nc(C(F)(F)F)c3C#N)C2)CC1` (stereo not shown) [Compound 3-065, 4-(3-(4-Acryloylpiperazin-1-yl)azetidin-1-yl)-6-(4-chloro-2-methyl-1-oxa-8-azaspiro[4.5]dec-3-en-8-yl)-2-(trifluoromethyl)nicotinonitrile] showed a pIC50 of 6.12.

Regarding `C=CC(=O)N1CCN(C2CN(c3cc(N4CCC5(CC4)OCCc4ccsc45)nc(C(F)(F)F)n3)C2)CC1` [Compound 3-064, 1-(4-(1-(6-(4′,5′-dihydrospiro[piperidine-4,7′-thieno[2,3-c]pyran]-1-yl)-2-(trifluoromethyl)pyrimidin-4-yl)azetidin-3-yl)piperazin-1-yl)prop-2-en-1-one], the pIC50 was 5.24.

Take `C=CC(=O)N1CCN(C2CN(c3cc(N4CCC5(CC4)OCc4cc(Cl)ccc45)nc(C(F)(F)F)c3C#N)C2)CC1` [Compound 3-041, 4-(3-(4-acryloylpiperazin-1-yl)azetidin-1-yl)-6-(5-chloro-3H-spiro[isobenzofuran-1,4′-piperidin]-1′-yl)-2-(trifluoromethyl)nicotinonitrile]: the pIC50 was less than 5.20.

`C=CC(=O)N1CCN(C2CN(c3cc(N4CCC5(CC4)CC(C)(O)CO5)nc(C(F)(F)F)c3C#N)C2)CC1` (stereo not shown) [Compound 3-029, 4-(3-(4-acryloylpiperazin-1-yl)azetidin-1-yl)-6-(3-hydroxy-3-methyl-1-oxa-8-azaspiro[4.5]decan-8-yl)-2-(trifluoromethyl)nicotinonitrile]: the negative logarithm of the IC50 (pIC50) is 5.06.

`C=CC(=O)N1CCN(C2CN(c3cc(N4CCC5(CC4)CC5)nc(C(F)(F)F)c3C#N)C2)CC1` [Compound 3-038, 4-(3-(4-acryloylpiperazin-1-yl)azetidin-1-yl)-6-(6-azaspiro[2.5]octan-6-yl)-2-(trifluoromethyl)nicotinonitrile] gave a pIC50 of 5.24.

In turn, `C=CC(=O)N1CCN(C2CN(c3cc(N4CCC5(C=C[C@@H](C)O5)CC4)nc(C(F)(F)F)c3C#N)C2)CC1` [Compound 3-068-1, (R)-4-(3-(4-acryloylpiperazin-1-yl)azetidin-1-yl)-6-(2-methyl-1-oxa-8-azaspiro[4.5]dec-3-en-8-yl)-2-(trifluoromethyl)nicotinonitrile] gave a pIC50 of 5.89.

The compound `C=CC(=O)N1CCN([C@@H]2CN(c3cc(N4CCC5(CC4)CC5CN4CCCC4)nc(C(F)(F)F)n3)[C@@H]2C)CC1` (stereo partly drawn) [Compound 3-023, 1-(4-((2R,3R)-2-methyl-1-(6-(1-(pyrrolidin-1-ylmethyl)-6-azaspiro[2.5]octan-6-yl)-2-(trifluoromethyl)pyrimidin-4-yl)azetidin-3-yl)piperazin-1-yl)prop-2-en-1-one] showed a negative-log IC50 (pIC50) of 5.14.
